In patent publication US8076329B2, “Histamine H3-receptor ligands and their therapeutic applications” (Bioprojet, priority 2005, dated 2011):
“And” between values parts separate entries of the source, which are not always exact repeats. Identical values can stand only once. Like-named read-outs stand apart in the source and are kept apart here.

Assays:
[1] = target: CYP3A4 (Homo sapiens, UniProt P08684); assay: Cytochrome inhibition, fluorometric microtiter plate assay; assay type: in vitro ADME; conditions: human recombinant CYP3A4, substrate BFC, compounds of the invention
Sequence of CYP3A4 (P08684 whole entry, canonical isoform): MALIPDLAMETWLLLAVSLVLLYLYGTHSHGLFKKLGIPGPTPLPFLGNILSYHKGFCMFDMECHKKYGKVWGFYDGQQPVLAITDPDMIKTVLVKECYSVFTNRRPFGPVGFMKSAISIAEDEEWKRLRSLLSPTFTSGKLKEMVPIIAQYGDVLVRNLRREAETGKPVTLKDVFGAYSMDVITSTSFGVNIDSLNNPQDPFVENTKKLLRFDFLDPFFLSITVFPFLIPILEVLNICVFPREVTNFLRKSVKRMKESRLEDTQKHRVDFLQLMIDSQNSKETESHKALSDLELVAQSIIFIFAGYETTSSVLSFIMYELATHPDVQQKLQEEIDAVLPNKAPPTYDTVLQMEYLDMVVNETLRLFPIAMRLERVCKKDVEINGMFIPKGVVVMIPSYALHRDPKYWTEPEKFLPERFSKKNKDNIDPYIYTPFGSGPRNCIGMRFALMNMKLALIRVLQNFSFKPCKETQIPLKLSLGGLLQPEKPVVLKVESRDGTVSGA
Protocol: (§1) The ability of drug in human to inhibit the catalytic activity of cytochrome P-450 isoforms was assayed using microtiter plate-based, fluorometric assays for the activities of the five human major CYP forms. Inhibition potential was determined in vitro after incubation of fluorescent model substrates over various incubation time with human recombinant cytochrome isoforms in the absence or in presence of increasing concentrations of test molecules (from 1 nM to 100 μM), in comparison with specific CYP isoform inhibitors.
(§2) Incubation of drug was carried out at 37° C.±0.5° C. under agitation in the presence of human recombinant cytochrome P-450 isoforms and a NADPH generating system. The incubation conditions for each cytochrome isoform were as follows: […]

[2] = target: CYP2D6 (Homo sapiens, UniProt P10635); assay: as above; assay type: in vitro ADME; conditions: human recombinant CYP2D6, substrate AMMC, compounds of the invention
Sequence of CYP2D6 (P10635 whole entry): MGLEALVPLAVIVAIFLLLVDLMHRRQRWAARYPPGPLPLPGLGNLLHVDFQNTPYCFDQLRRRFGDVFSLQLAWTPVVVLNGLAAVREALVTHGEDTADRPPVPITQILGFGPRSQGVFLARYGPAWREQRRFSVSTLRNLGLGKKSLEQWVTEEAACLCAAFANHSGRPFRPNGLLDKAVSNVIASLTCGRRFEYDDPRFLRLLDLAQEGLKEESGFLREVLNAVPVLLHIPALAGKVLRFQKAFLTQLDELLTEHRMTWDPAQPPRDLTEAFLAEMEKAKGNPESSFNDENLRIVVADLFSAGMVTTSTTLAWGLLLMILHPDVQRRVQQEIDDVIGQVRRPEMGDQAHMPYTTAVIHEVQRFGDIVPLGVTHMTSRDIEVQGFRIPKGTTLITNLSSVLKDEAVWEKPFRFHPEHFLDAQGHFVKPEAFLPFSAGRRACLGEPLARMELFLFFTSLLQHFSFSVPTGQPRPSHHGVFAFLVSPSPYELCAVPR
Protocol: as §1, §2

[3] = CYP3A4 cytochrome inhibition (IC50, concentrations in μM for 50% inhibition)
[4] = CYP2D6 cytochrome inhibition (IC50, concentrations in μM for 50% inhibition)
[5] = read-out: CYP3A4 cytochrome inhibition (IC50, concentrations in μM for 50% inhibition)
[6] = read-out: CYP2D6 cytochrome inhibition (IC50, concentrations in μM for 50% inhibition)

Row | IC50 [1, 3] | IC50 [2, 4] | IC50 ([1]; human, recombinant human CYP3A4, probe BFC, CYP3A4 cytochrome inhibition (IC50, concentrations in μM for 50% inhibition)) | Compound | IC50 [1, 5] | IC50 [2, 6]
1 | > 10 µM | > 10 µM | – | C[C@H]1CCCN(CCCOc2ccc(C3CCC(C)(O)CC3)cc2)C1 (stereo partly drawn) [Example 64, (3S)-1-{3-[4-(4-hydroxy-4-methylcyclohexyl)phenoxy]propyl}-3-methylpiperidine] | – | –
2 | > 10 µM | > 10 µM | – | C[C@H]1CCCN(CCCOc2ccc([C@H]3CC[C@H](O)CC3)cc2)C1 [Example 61, (3S)-1-{3-[trans-4-(4-hydroxycyclohexyl)phenoxy]propyl}-3-methylpiperidine] | – | –
3 | > 1 µM | > 10 µM | – | C(=C\c1ccc(-c2ccc(OCCCN3CCCCC3)cc2)cc1)/CN1CCCCC1 [Example 44, (E)-1-(3-{[4′-(3-piperidinoprop-1-en-1-yl)biphenyl-4-yl]oxy}propyl)piperidine] | – | –
4 | 57 µM | 64 µM | – | [O-][n+]1ccc(-c2ccc(OCCCN3CCCCC3)cc2)cc1 [Example 53, 4-[4-(3-piperidinopropoxy)phenyl]pyridine 1-oxide] | – | –
5 | 11 µM | 6 µM | – | C[C@H]1CCCN(CCCOc2ccc(-c3ccncc3)cc2)C1 [Example 39, (3S)-3-methyl-1-{3-[4-(4-pyridyl)phenoxy]propyl}piperidine] | – | –
6 | – | – | – | 1-{3-[4-(cis-4-morpholinocyclohex-1-yl)phenoxy]propyl}piperidine, dihydrochloride and 1-{3-[4-(trans-4-morpholinocyclohex-1-yl)phenoxy]-propyl}piperidine, dihydro-chloride [Example 40] | 66 µM | > 100 µM
7 | 2 µM | 2 µM | – | c1cc(-c2ccc(OCCCN3CCCCC3)cc2)ccc1CCCN1CCCCC1 [Example 48] | – | –
8 | > 10 µM | > 10 µM | – | C[C@@H]1C[C@@H](C)CN(CCCOc2ccc(Oc3ccccc3)cc2)C1 (relative stereo) [Example 14, trans-1-{3-[4-(phenoxy)phenoxy]propyl}-3,5-dimethylpiperidine] | – | –
9 | 11 µM | 7 µM | – | c1cc(-c2ccc(OCCCN3CCCCC3)cc2)ccn1 [Example 30] | – | –
10 | > 1 µM | > 10 µM | – | Cc1ccc(-c2ccc(OCCCN3C[C@@H](C)C[C@H](C)C3)cc2)cc1 (relative stereo) [Example 27, trans-3,5-dimethyl-1-{3-[(4′-methylbiphenyl-4-yl)oxy]propyl}piperidine] | – | –
11 | 30 µM | 47 µM | – | C=C(C)c1ccc(OCCCN2C[C@@H](C)C[C@H](C)C2)cc1 (relative stereo) [Example 10, trans-1-{3-(4-isopropenylphenoxy)propyl]-3,5-dimethylpiperidine] | – | –
12 | > 10 µM | > 10 µM | – | CN1CCC(COCc2ccc(OCCCN3CCCCC3)cc2)CC1 [Example 68, 1-methyl-4-[4-(3-piperidinopropoxy)benzyloxymethyl]piperidine] | – | –
13 | 30 µM | > 10 µM | – | c1cc(-c2ccc(OCCCN3CCCC3)cc2)ccc1OCCCN1CCCC1 [Example 38, di-1,1′-{(biphenyl-4,4′-diyl)bis[oxy(propan-1,3-diyl)]}pyrrolidine] | – | –
14 | 72 µM | > 100 µM | – | C[C@H]1CCCN(CCCOc2ccc(-c3cc[n+]([O-])cc3)cc2)C1 [Example 51, (3S)-4-{4-[3-(3-methylpiperidin-1-yl)propoxy]phenyl}pyridine 1-oxide] | – | –
15 | 3 µM | 13 µM | – | C[C@@H]1C[C@@H](C)CN(CCCOc2ccc(-c3ccccc3)cc2)C1 (relative stereo) [Example 22, trans-1-{3-[(biphenyl-4-yl)oxy]propyl}-3,5-dimethylpiperidine] | – | –
16 | > 10 µM | > 10 µM | – | CC1CCCN(CCCOc2ccc(C(C)(C)O)cc2)C1 (racemic) [Example 6, (RS)-1-{3-[4-(1-hydroxy-1-methylethyl)phenoxy]propyl}-3-methylpiperidine] | – | –
17 | 4 µM | 4 µM | – | C[C@@H]1C[C@@H](C)CN(CCCOc2ccc(-c3ccncc3)cc2)C1 (relative stereo) [Example 31, trans-3,5-dimethyl-1-{3-[4-(4-pyridyl)phenoxy]propyl}piperidine] | – | –
18 | 5 µM | 79 µM | – | C(=C/c1ccc(-c2ccc(OCCCN3CCCCC3)cc2)cc1)/CN1CCCCC1 [Example 45, (Z)-1-(3-{[4′-(3-piperidinoprop-1-en-1-yl)biphenyl-4-yl]oxy}propyl)piperidine] | – | –
19 | > 10 µM | > 10 µM | – | O[C@H]1CC[C@H](c2ccc(OCCCN3CCCC3)cc2)CC1 [Example 63, 1-{3-[trans-4-(4-hydroxycyclohexyl)phenoxy]propyl}pyrrolidine] | – | –

Row | IC50 [1, 3] | IC50 [2, 4] | IC50 ([1]; human, recombinant human CYP3A4, probe BFC, CYP3A4 cytochrome inhibition (IC50, concentrations in μM for 50% inhibition)) | Compound | IC50 [1, 5] | IC50 [2, 6]
20 | 20 µM | 5 µM | – | C(=C\c1ccc(OCCCN2CCCCC2)cc1)/c1ccccc1 [Example 11, trans-1-{3-(4-styrylphenoxy)propyl]piperidine] | – | –
21 | > 10 µM | > 10 µM | – | CN1CCC(OCc2ccc(OCCCN3CCCCC3)cc2)CC1 [Example 67, 1-methyl-4-[4-(3-piperidinopropoxy)benzyloxy]piperidine] | – | –
22 | > 10 µM | > 10 µM | – | C[C@H]1C[C@H](C)CN(CCCOc2ccc(C(=O)N3CCCC3)cc2)C1 (relative stereo) [Example 2, trans-1-{3-[4-(N,N-tetramethylenecarbamoyl)phenoxy]propyl}-3,5-dimethylpiperidine] | – | –
23 | > 10 µM | > 10 µM | – | O[C@H]1CC[C@H](c2ccc(OCCCN3CCCCC3)cc2)CC1 [Example 65, 1-{3-[trans-4-(4-hydroxycyclohexyl)phenoxy]propyl}piperidine] | – | –
24 | 8 µM | 14 µM | – | CC1CCCN(CCCOc2ccc(-c3ccccc3)cc2)C1 (racemic) [Example 26, (RS)-1-{3-[(biphenyl-4-yl)oxy]propyl}-3-methylpiperidine] | – | –
25 | 22 µM | > 100 µM | – | C[C@@H]1C[C@@H](C)CN(CCCOc2ccc(C3=NCCCC3)cc2)C1 (relative stereo) [Example 16, trans-6-{4-[3-(3,5-dimethylpiperidino)propoxy]phenyl}-2,3,4,5-tetrahydropyridine] | – | –
26 | 3 µM | 8 µM | – | C=CCC(O)(CC=C)c1ccc(OCCCN2CCCCC2)cc1 [Example 9, 1-{3-[4-(1-hydroxy-1-allylbut-3-enyl)phenoxy]propyl}piperidine] | – | –
27 | 38 µM and 35 µM | > 10 µM | – | C[C@@H]1C[C@@H](C)CN(CCCOc2ccc([C@H]3CC[C@@H](N(C)C)CC3)cc2)C1 (relative stereo) [Example 20, trans-1-{3-[4-(cis-4-dimethylaminocyclohex-1-yl)phenoxy]propyl}-3,5-dimethylpiperidine, dioxalate and trans-1-{3-[4-(trans-4-dimethylaminocyclohex-1-yl)-phenoxy]propyl}-3,5-dimethylpiperidine, dioxalate] | – | –
28 | 7 µM | 3 µM | – | C[C@H]1C[C@H](C)CN(CCCOc2ccc(-n3cccc3)cc2)C1 (relative stereo) [Example 33, trans-3,5-dimethyl-1-{3-[4-(pyrrol-1-yl)phenoxy]propyl}piperidine] | – | –
29 | 12 µM | > 100 µM | – | CN1CCN(c2ccc(-c3ccc(OCCCN4CCCCC4)cc3)cc2)CC1 [Example 46, 1-methyl-4-[4′-(3-piperidinopropoxy)biphenyl]piperazine] | – | –
30 | > 10 µM | > 10 µM | – | N#CCc1ccc(OCCCN2CCCCC2)cc1 [Example 4] | – | –
31 | 27 µM | > 10 µM | – | C[C@H]1C[C@H](C)CN(CCCOc2ccc([C@H]3CC[C@H](N)CC3)cc2)C1 [Example 49, (3S,5S)-1-{3-[4-(trans-4-aminocyclohex-1-yl)phenoxy]propyl}-3,5-dimethylpiperidine] | – | –
32 | – | – | – | 1-{3-[4-(cis-4-dimethylaminocyclohex-1-yl)phenoxy]propyl}piperidine, dioxalate and 1-{3-[4-(trans-4-dimethylaminocyclohex-1-yl)phenoxy]propyl}-piperidine, dioxalate [Example 18] | 43 µM and 50 µM | > 10 µM
33 | > 10 µM | > 10 µM | – | OC1CCC(c2ccc(OCCCN3CCCCC3)cc2)CC1 (stereo not shown) [Example 60, 1-{3-[4-(4-hydroxycyclohexyl)phenoxy]propyl}piperidine] | – | –
34 | > 10 µM | > 10 µM | – | COc1ccc(-c2ccc(OCCCN3CCCCC3)cc2)cc1 [Example 25, 1-{3-[(4′-methoxybiphenyl-4-yl)oxy]propyl}piperidine] | – | –
35 | 16 µM | 23 µM | – | c1ccc(COc2ccc(OCCCN3CCCCC3)cc2)cc1 [Example 13, 1-{3-[4-(benzyloxy)phenoxy]propyl}piperidine] | – | –
36 | 3 µM | 13 µM | – | C[C@H]1C[C@H](C)CN(CCCOc2ccc(-c3ccccc3)cc2)C1 [Example 23, (3S,5S)-1-{3-[(biphenyl-4-yl)oxy]propyl}-3,5-dimethylpiperidine] | – | –
37 | – | 20 µM | 10 µM | C[C@@H]1C[C@@H](C)CN(CCCOc2ccc(-c3cc[nH]n3)cc2)C1 (relative stereo) [Example 34, trans-3,5-dimethyl-1-{3-[4-(pyrazol-3-yl)phenoxy]propyl}piperidine] | – | –
38 | > 10 µM | > 10 µM | – | C[C@H]1CCCN(CCCOc2ccc(-c3cc[n+](C)cc3)cc2)C1 [Example 57, 1-methyl-4-(4-{3-[(3S)-3-methylpiperidin-1-yl]propoxy}phenyl)pyridinium] | – | –
